Measured values taken from patent publication US4879313A, “Novel platelet-aggregation inhibitors” (Mosanto Company, priority 1988, dated 1989).

How the values were obtained:
[1] = test system: ADP-induced platelet aggregation in human PRP; assay: In-vitro human platelet aggregation in PRP (ADP-induced); assay type: cell-based; details: for HUMAN PRP % INHIBITION AT 10^-4 M: compound at 10^-4 M, human platelet-rich plasma; for IC50: human PRP, linear regression of the dose response curve
Description: In one assay, platelet aggregation is examined in platelet-rich plasma which also is rich in fibrinogen and other plasma proteins. The % inhibition is determined for the test compound by comparing the extent of platelet aggregation in the presence and absence of the test compound.
Healthy male or female donors who have not taken any antiplatelet drugs for at least 2 weeks were fasted for 8 hours prior to drawing blood; then 30 ml whole blood was collected using a butterfly needle and 30 cc plastic syringe with 3 ml of 0.129 M buffered sodium citrate (3.8%). The syringe was rotated carefully as blood was drawn to mix the citrate. Platelet-richplasma (PRP) was prepared by centrifugation at 100×g for 10 minutes at room temperature, allowing the centrifuge to coast to a stop without braking. The PRP was removed from the blood with a plastic pipette and placed in a plastic capped, 50 ml Corning conical sterile centrifuge tube which was held at room temperature. Platelet poor plasma (PPP) was prepared by centrifuging the remaining blood at 2000×g for 15 minutes at room temperature allowing the centrifuge to coast to a stop without braking. The PRP was adjusted with PPP to a count of 2-3×10^8 platelets per ml. 400 μl of the PRP preparation and 50 μl of the compound to be tested or saline were preincubated for 1 minute at 37° C. in a Payton aggregometer (Payton Scientific, Inc., Buffalo, N.Y.). 50 μl of adenosine 5'-diphosphate (ADP) (50 μM) was added to the cuvettes and the aggregation was monitored for 1 minute. All compounds are tested in duplicate. Results are calculated as follows: Percent of control=[(maximal OD minus initial OD of compound) divided by (maximal OD minus initial OD of control saline)]×100. The % inhibition=100-(percent of control).
The compounds tested and their activity results in % inhibition at 10^-4 M and median inhibitory concentration (IC50) were as recorded in Table 1.

[2] = test system: collagen induced rat thrombocytopenia (platelet aggregation); assay: In vivo rat thrombocytopenia (collagen induced)
Description: In another test, the effect of the peptide mimetic compound on collagen induced thrombocytopenia (platelet aggregation) is measured in vivo in the rat. Again, the % inhibition is determined for the test compound and compared against a saine or ethanol vehicle in the absence of the test compound.
Male rats [Charles River, CRL:CD(SD), 400-450 g] were used. The rats were anesthetized with Na pentabarbital (65 mg/kg, Vet Labs, Limited, lnc., Lenexa, Kan.). Two incisions were made to expose both jugular veins. Using an infusion pump (Harvard Apparatus, South Natick, Mass.) and a 5 cc syringe with a 19 g. butterfly, the test compound or vehicle was infused into the left jugular vein at a rate of 0.39 ml/min for 3 min. After 2 min of compound/vehicle infusion, collagen (60 μg/kg) (Helena Laboratories,Beaumont, Tex.) was injected with a one ml syringe into the right jugular vein. The body cavity was opened and the vena cava was exposed for blood sampling. One min after the collagen injection, compound infusion was stopped and blood was sampled from the vena cava (within 30 sec) with a 3 cc syringe containing […] of 4.5% EDTA/Tris (0.1 M) (pH 7.35) plus 150 μM indomethacin. Platelet rich plasma (PRP) was prepared by centrifuging the blood at 126×g for 10 min. Five μ1 of PRP was counted in 20 ml of Isoton®III in a Coulter Counter.
Percent inhibition of collagen induced aggregation was calculated by comparison of the platelet counts in animals that were treated with test compound and collagen (a) with platelet counts for animals receiving no collagen (non-aggregated control) and (b) with platelet counts for animals receiving vehicle and collagen (aggregated control).
The % inhibition of platelet aggregation in vivo and the median effective dose (ED50) of the test compounds are set forth in the following Table II.

SMILES: COc1ccc(CCNC(=O)C(CC(=O)O)NC(=O)CCCCCCCNC(=N)N)cc1 (centres unmarked) [8-guanidino-octanoyl-Asp-2-(4-methoxyphenyl)ethyl amide]
- HUMAN PRP % INHIBITION AT 10^-4 M [1]: 100%
- % INHIBITION AT 1 mg/kg ([2]; 1 mg/kg, infusion into jugular vein, collagen 60 μg/kg, rat): 67.05%
- effective dose relative to that required for equivalent inhibitory activity by Arg-Gly-Asp-(O-methyl-Tyr)-NH2 ([2]; in vivo thrombocytopenia assay, fraction of reference dose): about one eighth
- ED50 ([2]; infusion into jugular vein, collagen induced thrombocytopenia, rat): 0.07 mg/kg
- ED50 (orally active in rats) ([2]; oral, rats): 7.8 mg/kg

SMILES: COc1ccc(CCNC(=O)[C@H](CC(=O)O)NC(=O)CCCCCCCCCNC(=N)N)cc1 [10-guanidino-decanoyl-Asp--2-(4-methoxy-phenyl)ethyl amide]
- HUMAN PRP % INHIBITION AT 10^-4 M [1]: 65%
- IC50 [1]: 70 µM

SMILES: COc1ccc(CCNC(=O)[C@H](CC(=O)O)NC(=O)CNCCCCNC(=N)N)cc1 [N--(4-guanidinobutyl)-Gly--Asp--2-(4-methoxy-phenyl)ethyl amide]
- HUMAN PRP % INHIBITION AT 10^-4 M [1]: 0%

SMILES: COc1ccc(CCNC(=O)[C@H](CC(=O)O)NC(=O)CCCCCCCCNC(=N)N)cc1 [9-guanidino-nonanoyl-Asp-2-(4-methoxyphenyl)ethyl amide]
- HUMAN PRP % INHIBITION AT 10^-4 M [1]: 100%
- IC50 [1]: 27 µM

SMILES: COc1ccc(CCNC(=O)[C@H](CC(=O)O)NC(=O)CCCCCCCNC(=N)N)cc1OC [8-guanidino-octanoyl-Asp--2-(3,4-dimethoxy-phenyl)ethyl amide]
- HUMAN PRP % INHIBITION AT 10^-4 M [1]: 100%
- IC50 [1]: 12 µM

SMILES: COc1ccc(CCNC(=O)[C@H](CC(=O)O)NC(=O)CCCCCCNC(=N)N)cc1 [7-guanidino-heptanoyl-Asp--2-(4-methoxy-phenyl)ethyl amide]
- HUMAN PRP % INHIBITION AT 10^-4 M [1]: 43%

SMILES: N=C(N)NCCCCCCCC(=O)N[C@@H](CC(=O)O)C(=O)N[C@@H](Cc1ccc(-c2ccccc2)cc1)C(N)=O [8-guanidino-octanoyl-Asp--(4-phenyl)-phenylalanine amide]
- HUMAN PRP % INHIBITION AT 10^-4 M [1]: 100%
- IC50 [1]: 17 µM

SMILES: COc1ccc(CNC(=O)[C@H](CC(=O)O)NC(=O)CCCCCCCNC(=N)N)cc1 [8-guanidino-octanoyl-Asp--4-methoxybenzyl amide]
- HUMAN PRP % INHIBITION AT 10^-4 M [1]: 100%
- IC50 [1]: 33 µM
